Publication PMC9050506 (RSC Advances, 2020)

Test system: Recombinant influenza A virus hemagglutinin H3 protein (HA)
Conditions: SPR sensorgrams Fig. 3A-D

| Molecule | Rmax, binding to HA |
| --- | --- |
| CVN2L0-V2: CVN2L0 variant with one C58E–C73R substitution, three disulfide bonds | 723 RU |
| CVN2L0-V4: CVN2L0 variant with Cys–Cys mutagenesis to Trp–Met and Glu–Arg, two disulfide bonds (protein, left off: His6, N-terminal, state not stated) LGKFSQTCYNSAIQGSVLTSTCERTNGGYNTSSIDLNSVIENVDGSLKWQPSNFIETWRNTQLAGSSELAAEMKTRAQQFVSTKINLDDHIANIDGTLKYELGKFSQTCYNSAIQGSVLTSTCERTNGGYNTSSIDLNSVIENVDGSLKWQPSNFIETERNTQLAGSSELAAERKTRAQQFVSTKINLDDHIANIDGTLKYE | 34 RU |
